Assay results published in PubChem BioAssay AID248 (DTP/NCI, 2004).
Several values for one entry are separate records, joined by “and”; a condition that tells them apart may be missing. Equal entries are not always repeated. Toxic doses and inconclusive results are not listed. Cut-off read from the data, not from the text of the source: active = T/C of 150% or more; inactive = T/C below 125%.

Tested on: L1210 leukemia ip in BDF1 mice, survival T/C
Assay: NCI In Vivo Anticancer Drug Screen. Data for tumor model L1210 Leukemia (intraperitoneal) in B6D2F1 (BDF1) mice
Details: endpoint: mean survival time, higher = longer survival
Procedure, shortened: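 Transplanted-tumor mice were given test agent; controls received vehicle only. Survival readings from the two groups were divided (treated over control).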

[1] = dose: 100.0 mg/kg/injection, schedule: Q01DX001 (ip), vehicle: other
[2] = dose: 200.0 mg/kg/injection, schedule: Q01DX001 (ip), vehicle: other
[3] = dose: 100.0 mg/kg/injection, schedule: Q01DX009 (ip), vehicle: Klucel (hydroxypropylcellulose) (HPC)
[4] = dose: 100.0 mg/kg/injection, schedule: Q04DX003 (ip), vehicle: Klucel (hydroxypropylcellulose) (HPC)
[5] = dose: 200.0 mg/kg/injection, schedule: Q01DX009 (ip), vehicle: Klucel (hydroxypropylcellulose) (HPC)
[6] = dose: 200.0 mg/kg/injection, schedule: Q04DX003 (ip), vehicle: Klucel (hydroxypropylcellulose) (HPC)
[7] = dose: 400.0 mg/kg/injection, schedule: Q01DX009 (ip), vehicle: Klucel (hydroxypropylcellulose) (HPC)
[8] = dose: 400.0 mg/kg/injection, schedule: Q04DX003 (ip), vehicle: Klucel (hydroxypropylcellulose) (HPC)
[9] = dose: 100.0 mg/kg/injection, schedule: Q01DX001 (ip), vehicle: Klucel (hydroxypropylcellulose) (HPC)
[10] = dose: 200.0 mg/kg/injection, schedule: Q01DX001 (ip), vehicle: Klucel (hydroxypropylcellulose) (HPC)
[11] = dose: 400.0 mg/kg/injection, schedule: Q01DX001 (ip), vehicle: Klucel (hydroxypropylcellulose) (HPC)
[12] = dose: 100.0 mg/kg/injection, schedule: Q04DX003 (ip), vehicle: saline
[13] = dose: 200.0 mg/kg/injection, schedule: Q04DX003 (ip), vehicle: saline
[14] = dose: 100.0 mg/kg/injection, schedule: Q01DX009 (ip), vehicle: saline with Tween-80
[15] = dose: 100.0 mg/kg/injection, schedule: Q04DX003 (ip), vehicle: saline with Tween-80
[16] = dose: 200.0 mg/kg/injection, schedule: Q01DX009 (ip), vehicle: saline with Tween-80
[17] = dose: 200.0 mg/kg/injection, schedule: Q04DX003 (ip), vehicle: saline with Tween-80
[18] = dose: 400.0 mg/kg/injection, schedule: Q04DX003 (ip), vehicle: saline with Tween-80
[19] = dose: 100.0 mg/kg/injection, schedule: Q01DX001 (ip), vehicle: saline
[20] = dose: 200.0 mg/kg/injection, schedule: Q01DX001 (ip), vehicle: saline
[21] = dose: 100.0 mg/kg/injection, schedule: Q01DX009 (ip), vehicle: saline
[22] = dose: 50.0 mg/kg/injection, schedule: Q01DX009 (ip), vehicle: saline with Tween-80

Measured: T/C

CCOC(=O)Sc1ccccc1
inactive: [1] 102 % of control | [2] 94 % of control

Nc1ccc(I)c([N+](=O)[O-])c1
inactive: dose: 100.0 mg/kg/injection, schedule: Q04DX003 (ip), vehicle: acetone 87 % of control | dose: 200.0 mg/kg/injection, schedule: Q04DX003 (ip), vehicle: acetone 92 % of control | dose: 400.0 mg/kg/injection, schedule: Q04DX003 (ip), vehicle: acetone 101 % of control

COc1ccc(NC(=O)c2cccc(C(=O)Nc3ccc(OC)cc3)c2)cc1
inactive: [3] 88 % of control | [4] 93 % of control | [5] 97 % of control | [6] 88 % of control | [7] 97 % of control | [8] 93 % of control

NC(CSSCC(NC(=O)CNC(=O)OCc1ccccc1)C(=O)O)C(=O)O (configuration not stated)
inactive: [9] 93 % of control | [10] 90 % of control | [11] 98 % of control

CCOC(=O)c1[nH]c(-c2ccccc2)c(C(=O)OCC)c1-c1ccccc1
inactive: [4] 100 % of control | [6] 103 % of control | [8] 115 % of control

COc1cc2c(c3oc4c(c(=O)c13)CCCC4)CCC(C)(C)O2
inactive: [12] 91 % of control | [13] 94 % of control | dose: 400.0 mg/kg/injection, schedule: Q04DX003 (ip), vehicle: saline 94 % of control

CCSC(SCC)C(OC(C)=O)C(OC(C)=O)C(OC(C)=O)C(C)OC(C)=O (configuration not stated)
inactive: dose: 100.0 mg/kg/injection, schedule: Q01DX001 (ip), vehicle: saline with Tween-80 99 % of control | [14] 95 % of control and 89 % of control | dose: 100.0 mg/kg/injection, schedule: Q04DX002 (ip), vehicle: saline with Tween-80 93 % of control and 105 % of control | [15] 107 % of control | dose: 200.0 mg/kg/injection, schedule: Q01DX001 (ip), vehicle: saline with Tween-80 103 % of control | [16] 98 % of control and 100 % of control | dose: 200.0 mg/kg/injection, schedule: Q04DX002 (ip), vehicle: saline with Tween-80 94 % of control and 92 % of control | [17] 91 % of control | dose: 400.0 mg/kg/injection, schedule: Q01DX001 (ip), vehicle: saline with Tween-80 101 % of control | dose: 400.0 mg/kg/injection, schedule: Q01DX009 (ip), vehicle: saline with Tween-80 87 % of control and 88 % of control | dose: 400.0 mg/kg/injection, schedule: Q04DX002 (ip), vehicle: saline with Tween-80 100 % of control and 87 % of control | [18] 93 % of control

ClC(c1ccccc1)c1nc2ccccc2[nH]1 (configuration not stated)
inactive: [19] 94 % of control | [20] 96 % of control

O=C(COc1ccc(Cl)c(Cl)c1)NCc1ccc[n+](Cc2ccc(S(=O)(=O)F)cc2Cl)c1
inactive: dose: 25.0 mg/kg/injection, schedule: Q04DX003 (ip), vehicle: saline with Tween-80 109 % of control | dose: 50.0 mg/kg/injection, schedule: Q04DX003 (ip), vehicle: saline with Tween-80 101 % of control | [15] 86 % of control

COP(=O)(O)NC(C)=O
inactive: dose: 100.0 mg/kg/injection, schedule: Q04DX002 (ip), vehicle: saline 105 % of control | dose: 200.0 mg/kg/injection, schedule: Q04DX002 (ip), vehicle: saline 108 % of control | dose: 400.0 mg/kg/injection, schedule: Q04DX002 (ip), vehicle: saline 91 % of control

C=Cc1ccc(O)cc1
inactive: [19] 103 % of control | [20] 106 % of control | dose: 400.0 mg/kg/injection, schedule: Q01DX001 (ip), vehicle: saline 98 % of control

CCc1cccc[n+]1CC(=O)c1ccccc1
inactive: dose: 6.25 mg/kg/injection, schedule: Q01DX009 (ip), vehicle: saline 95 % of control | dose: 12.5 mg/kg/injection, schedule: Q01DX009 (ip), vehicle: saline 98 % of control | dose: 25.0 mg/kg/injection, schedule: Q04DX003 (ip), vehicle: saline 96 % of control

CCCNS(=O)(=O)c1ccc(C(=S)OCC)cc1
inactive: [9] 98 % of control | [10] 98 % of control | [11] 94 % of control

Cc1ccc(S(=O)(=O)C2CCCC/C2=N\Nc2ccc([N+](=O)[O-])cc2[N+](=O)[O-])cc1 (configuration not stated)
inactive: [1] 105 % of control | [2] 103 % of control | dose: 400.0 mg/kg/injection, schedule: Q01DX001 (ip), vehicle: other 96 % of control

CC(C)NNCCO
inactive: dose: 50.0 mg/kg/injection, schedule: Q01DX009 (ip), vehicle: saline 98 % of control | [21] 103 % of control | [12] 89 % of control | [13] 95 % of control

c1ccn2nnnc2c1
inactive: [1] 97 % of control | [2] 94 % of control

CCCCNC(=O)/C=C\C(=O)O
inactive: [22] 95 % of control | [3] 87 % of control | [14] 97 % of control | [21] 92 % of control | [4] 100 % of control | [5] 87 % of control | [16] 95 % of control | dose: 200.0 mg/kg/injection, schedule: Q01DX009 (ip), vehicle: saline 94 % of control | [7] 100 % of control | dose: 400.0 mg/kg/injection, schedule: Q01DX009 (ip), vehicle: saline 97 % of control | [8] 87 % of control

CCc1cccc(OS(=O)(=O)c2ccc([N+](=O)[O-])cc2)c1
inactive: dose: 25.0 mg/kg/injection, schedule: Q01DX009 (ip), vehicle: Klucel (hydroxypropylcellulose) (HPC) 95 % of control | [3] 92 % of control

O=[N+]([O-])c1ccc2c(c1)c(-c1cc(Cl)cc(Cl)c1)nc1ccccc12
inactive: [22] 104 % of control | [14] 103 % of control | [15] 93 % of control | [16] 106 % of control | [17] 90 % of control | [18] 93 % of control

[CH3][Hg][O]C(C)=O
inactive: dose: 3.0 mg/kg/injection, schedule: Q01DX009 (ip), vehicle: Klucel (hydroxypropylcellulose) (HPC) 86 % of control | dose: 3.12 mg/kg/injection, schedule: Q04DX003 (ip), vehicle: Klucel (hydroxypropylcellulose) (HPC) 104 % of control | dose: 6.0 mg/kg/injection, schedule: Q01DX009 (ip), vehicle: Klucel (hydroxypropylcellulose) (HPC) 91 % of control | dose: 6.25 mg/kg/injection, schedule: Q04DX003 (ip), vehicle: Klucel (hydroxypropylcellulose) (HPC) 96 % of control | dose: 12.5 mg/kg/injection, schedule: Q04DX003 (ip), vehicle: Klucel (hydroxypropylcellulose) (HPC) 96 % of control and 97 % of control
